Tested on: Clostridium difficile (strain VPI 10463 (ATCC-43255))
Test: Mouse model of Clostridium difficile infection, disease-associated phenotypes and spore carriage
Assay type: in vivo, Mice (female C57BL/6)
Description: This experiment was conducted to analyze the effects of glycan therapeutics in a mouse model of Clostridium difficile infection (Chen et al, 2008, A Mouse Model of Clostridium difficile-Associated Disease. Gastroenterology 135(6), 1984-1992). In this model, normal mice were exposed to an antibiotic regimen that renders them susceptible to C. difficile infection and disease symptoms, similar with respect to their development and manifestation of human clinical disease. In humans, the disease is most often the result of exposure to broad spectrum antibiotics which is thought to result in intestinal dysbiosis and subsequent increased colonic colonization with C. difficile. […]
Disease-associated phenotypes were recorded for a duration of ten days starting on the day of Clostridium difficile challenge (on day 0) through day 10. The phenotypes, including lethargy, hunched posture and ruffled coat, wet tail/abdomen and hypothermia were scored from 0 to 4: Normal=0; Lethargic=1; Lethargic+Hunched=2; Lethargic+Hunched+Wet tail/abdomen (diarrhea)=3; and Lethargic+Hunched+Wet tail/abdomen+Hypothermic=4. Death (day 0 to day 10 or 11) and weight (day 1 to day 7 and day 10) of the animals was also monitored and recorded.
In addition, carriage of Clostridium difficile spores, which is indicative of Clostridium difficile gut colonization in both mice and humans, was assessed daily from day 0 to day 6. […]

CN[C@H](CC(C)C)C(=O)N[C@H]1C(=O)N[C@@H](CC(N)=O)C(=O)N[C@H]2C(=O)N[C@H]3C(=O)N[C@H](C(=O)N[C@H](C(=O)O)c4cc(O)cc(O)c4-c4cc3ccc4O)[C@H](O)c3ccc(c(Cl)c3)Oc3cc2cc(c3O[C@@H]2O[C@H](CO)[C@@H](O)[C@H](O)[C@H]2O[C@H]2C[C@](C)(N)[C@H](O)[C@H](C)O2)Oc2ccc(cc2Cl)[C@H]1O [Vancomycin, vancomycin]
clinical signs on day 10 (PO gavage QD days 0 to 4): exhibited clinical signs | clinical score of survivors (score 0 to 4, after end of treatment, days 7 to 10): above 0
